# Key:
# [1] = system: patients with Wilson disease (WD); experiment: UWDRS Part III minimal clinically important difference (MCID) responders and net promoter score; assay type: in vivo, human
# Excerpt: To calculate net promoter scores, minimal clinically important differences (MCID) were first defined.
# Therefore, distribution-based methods were used to compute MCID threshold, half standard deviation (SD), and standard error of measurement (SEM) for the full Study 301 population and the Subpart E population. […] The difference between those two proportions represented the “net promoter score.”
# [2] = system: patients with Wilson disease (WD); conditions: in vivo
# [3] = human, in vivo
# Excerpt: Pharmacokinetics: Blood samples for PK analysis were collected to measure plasma total molybdenum and plasma ultrafiltrate (PUF) molybdenum.
# [4] = system: patients with Wilson disease (WD); experiment: Study 301: daily mean AUEC of plasma directly measured non-ceruloplasmin-bound copper (dNCC), copper mobilization; assay type: in vivo, human; conditions: for Mean Daily dNCC AUEC0-48 w, LSM: ANCOVA; for Mean Daily dNCC AUEC0-48 w, LSM / Mean Daily dNCC AUEC0-48 w, Mean: multiple imputation; for Mean Daily dNCC AUEC0-48 w, Mean: Full Analysis Set; for Mean Daily dNCC AUEC0-48 w, Between Group LSM Diff / Mean Daily dNCC AUEC0-48 w, Within Group LSM: lower block of Table 5
# Excerpt: FIG. 1 provides a schematic view of the study design. […] This study is referred throughout as Study 301.
# The primary endpoint integrated copper mobilization and sequestration (i.e., copper control) throughout the 48-week Primary Treatment Period by assessment of daily mean area under the effect-time curve (AUEC) of directly measured non-ceruloplasmin-bound copper (dNCC) concentration. […] Measurement of dNCC in plasma is highly sensitive and accurate, requiring no special formulas or assumptions. As proposed, dNCC AUEC0-48 W is an indirect measure of copper mobilization and sequestration.
# This assessment is also applicable to SoC treatments. In addition, plasma Cp, CpC, plasma total copper, and LBC were measured with AUEC calculated for plasma total copper and LBC.
# The AUEC for dNCC concentration was calculated using the trapezoidal rule, and then divided by number of days to yield a mean daily AUEC plasma dNCC concentration from baseline to Week 48 (expressed as μmol/L and described as AUEC0-48 W).
# Tests were performed at a significance level of 0.05 (2-sided).
substance,measurement,setting,value
bis-choline tetrathiomolybdate [TTM],patients improved by ≥5 points in UWDRS Part III,"[1]; Study 301, by 48 weeks",44.8%
same,"UWDRS Part III SD MCID Achievers, Net Promoter Score",[1]; improving minus worsening,16%
same,"UWDRS Part III SE MCID Achievers, Net Promoter Score",[1]; improving minus worsening,20%
same,"UWDRS Part III SD MCID Achievers, Improving",[1]; in vivo,22%
same,"UWDRS Part III SD MCID Achievers, Worsening",[1]; in vivo,6%
same,"UWDRS Part III SE MCID Achievers, Improving",[1]; in vivo,28%
same,"UWDRS Part III SE MCID Achievers, Worsening",[1]; in vivo,8%
same,patients improved at 4-point change threshold in UWDRS Part III,"[1]; incomplete and/or intolerant subgroup, 48 weeks",43.1%
same,AEs in SOC Investigations,[2],29.5%
same,AEs in SOC Metabolism and nutrition disorders,[2],11.5%
same,AEs in SOC Skin and subcutaneous tissue disorders,[2],13.1%
same,"Affective disorder, E (events)",[2],0
same,"Affective disorder, participants with AE",[2],0 N (%)
same,"Alanine aminotransferase increased AE, % participants",[2],19.7%
same,"Alanine aminotransferase increased AE, E events",[2],14
same,"Alanine aminotransferase increased AE, N participants",[2],12
same,"Anxiety, E (events)",[2],1
same,"Anxiety, participants with AE",[2],1 (1.6) N (%)
same,"Aspartate aminotransferase increased AE, % participants",[2],6.6%
same,"Aspartate aminotransferase increased AE, E events",[2],4
same,"Aspartate aminotransferase increased AE, N participants",[2],4
same,"Attention deficit hyperactivity disorder, E (events)",[2],0
same,"Attention deficit hyperactivity disorder, participants with AE",[2],0 N (%)
same,"Blood and lymphatic system disorders, E (events)",[2],18
same,"Blood and lymphatic system disorders, participants with AE",[2],7 (11.5) N (%)
same,"Cardiac disorders, E (events)",[2],5
same,"Cardiac disorders, participants with AE",[2],3 (4.9) N (%)
same,"Congenital, familial, and genetic disorders, E (events)",[2],0
same,"Congenital, familial, and genetic disorders, participants with AE",[2],0 N (%)
same,"Dyslipidemia AE, % participants",[2],1.6%
same,"Dyslipidemia AE, E events",[2],1
same,"Dyslipidemia AE, N participants",[2],1
same,"Ear and labyrinth disorders, E (events)",[2],1
same,"Ear and labyrinth disorders, participants with AE",[2],1 (1.6) N (%)
same,"Eczema AE, % participants",[2],1.6%
same,"Eczema AE, E events",[2],1
same,"Eczema AE, N participants",[2],1
same,"Eye disorders, E (events)",[2],0
same,"Eye disorders, participants with AE",[2],0 N (%)
same,"Fatigue AE, % participants",[2],8.2%
same,"Fatigue AE, E events",[2],5
same,"Fatigue AE, N participants",[2],5
same,"Gamma-glutamyltransferase increased AE, % participants",[2],4.9%
same,"Gamma-glutamyltransferase increased AE, E events",[2],3
same,"Gamma-glutamyltransferase increased AE, N participants",[2],3
same,"Gastrointestinal disorders, E (events)",[2],30
same,"Gastrointestinal disorders, participants with AE",[2],18 (29.5) N (%)
same,"Hand dermatitis AE, % participants",[2],1.6%
same,"Hand dermatitis AE, E events",[2],1
same,"Hand dermatitis AE, N participants",[2],1
same,"Hepatic enzyme increased AE, N participants",[2],3
same,"Hepatobiliary disorders, E (events)",[2],3
same,"Hepatobiliary disorders, participants with AE",[2],2 (3.3) N (%)
same,"Hyperlipidaemia AE, % participants",[2],1.6%
same,"Hyperlipidaemia AE, E events",[2],1
same,"Hyperlipidaemia AE, N participants",[2],1
same,"Hypertriglyceridaemia AE, % participants",[2],1.6%
same,"Hypertriglyceridaemia AE, E events",[2],3
same,"Hypertriglyceridaemia AE, N participants",[2],1
same,"Infections and infestations, E (events)",[2],23
same,"Infections and infestations, participants with AE",[2],17 (27.9) N (%)
same,"Injury, poisoning and procedural complications, E (events)",[2],13
same,"Injury, poisoning and procedural complications, participants with AE",[2],7 (11.5) N (%)
same,"Investigations (SOC) AE, % participants",[2],29.5%
same,"Investigations (SOC) AE, E events",[2],29
same,"Investigations (SOC) AE, N participants",[2],18
same,"Metabolism and nutrition disorders (SOC) AE, % participants",[2],11.5%
same,"Metabolism and nutrition disorders (SOC) AE, E events",[2],10
same,"Metabolism and nutrition disorders (SOC) AE, N participants",[2],7
same,"Neoplasms benign, malignant, and unspecified (incl cysts and polyps), E (events)",[2],1
same,"Neoplasms benign, malignant, and unspecified (incl cysts and polyps), participants with AE",[2],1 (1.6) N (%)
same,"Nervous system disorders, E (events)",[2],12
same,"Nervous system disorders, participants with AE",[2],11 (18.0) N (%)
same,"Neutrophil count decreased AE, % participants",[2],1.6%
same,"Neutrophil count decreased AE, E events",[2],1
same,"Neutrophil count decreased AE, N participants",[2],1
same,"Post-traumatic stress disorder, E (events)",[2],1
same,"Post-traumatic stress disorder, participants with AE",[2],1 (1.6) N (%)
same,"Product issues, E (events)",[2],0
same,"Product issues, participants with AE",[2],0 N (%)
same,"Pruritus AE, % participants",[2],3.3%
same,"Pruritus AE, E events",[2],2
same,"Pruritus AE, N participants",[2],2
same,"Psychiatric disorders, E (events)",[2],3
same,"Psychiatric disorders, participants with AE",[2],3 (4.9) N (%)
same,"Pyrexia AE, % participants",[2],1.6%
same,"Pyrexia AE, E events",[2],1
same,"Pyrexia AE, N participants",[2],1
same,"Rash AE, % participants",[2],1.6%
same,"Rash AE, E events",[2],5
same,"Rash AE, N participants",[2],1
same,"Rash pruritic AE, % participants",[2],1.6%
same,"Rash pruritic AE, E events",[2],1
same,"Rash pruritic AE, N participants",[2],1
same,"Renal and urinary disorders, E (events)",[2],2
same,"Renal and urinary disorders, participants with AE",[2],1 (1.6) N (%)
same,"Reproductive system and breast disorders, E (events)",[2],0
same,"Reproductive system and breast disorders, participants with AE",[2],0 N (%)
same,"Respiratory, thoracic, and mediastinal disorders, E (events)",[2],4
same,"Respiratory, thoracic, and mediastinal disorders, participants with AE",[2],3 (4.9) N (%)
same,"Restlessness, E (events)",[2],0
same,"Restlessness, participants with AE",[2],0 N (%)
same,"Skin and subcutaneous tissue disorders (SOC) AE, % participants",[2],13.1%
same,"Skin and subcutaneous tissue disorders (SOC) AE, E events",[2],15
same,"Skin and subcutaneous tissue disorders (SOC) AE, N participants",[2],8
same,"Sleep disorder, E (events)",[2],1
same,"Sleep disorder, participants with AE",[2],1 (1.6) N (%)
same,"Vascular disorders, E (events)",[2],5
same,"Vascular disorders, participants with AE",[2],3 (4.9) N (%)
same,"Daily Mean AUC(0-48 weeks) PUF Mo, Mean",[3],0.1 mmol/L
same,"Mean Daily dNCC AUEC0-48 w, LSM Diff (TTM-SoC)",[4]; Cohort 1,1.64 µmol/L
same,"Mean Daily dNCC AUEC0-48 w, LSM",[4]; Cohort 1,2.50 µmol/L
same,"Mean Daily dNCC AUEC0-48 w, Mean",[4]; Cohort 1,2.68 µmol/L
same,"Mean Daily dNCC AUEC0-48 w, Between Group LSM Diff",[4]; Cohort 1,1.72 µmol/L
same,"Mean Daily dNCC AUEC0-48 w, Within Group LSM",[4]; Cohort 1,2.59 µmol/L
same,"Mean Daily dNCC AUEC0-48 w, LSM Diff (TTM-SoC)",[4]; Cohort 2,3.79 µmol/L
same,"Mean Daily dNCC AUEC0-48 w, LSM",[4]; Cohort 2,4.76 µmol/L
same,"Mean Daily dNCC AUEC0-48 w, Mean",[4]; Cohort 2,4.58 µmol/L
same,"Mean Daily dNCC AUEC0-48 w, Between Group LSM Diff",[4]; Cohort 2,3.68 µmol/L
same,"Mean Daily dNCC AUEC0-48 w, Within Group LSM",[4]; Cohort 2,4.64 µmol/L
same,"Mean Daily dNCC AUEC0-48 w, LSM Diff (TTM-SoC)",[4]; Overall,2.18 µmol/L
same,"Mean Daily dNCC AUEC0-48 w, LSM",[4]; Overall,3.18 µmol/L
same,"Mean Daily dNCC AUEC0-48 w, Mean",[4]; Overall,3.12 µmol/L
same,"Mean Daily dNCC AUEC0-48 w, Between Group LSM Diff",[4]; Overall,2.12 µmol/L
same,"Mean Daily dNCC AUEC0-48 w, Within Group LSM",[4]; Overall,3.06 µmol/L
same,"dNCC area under the effect curve, LSM difference (SE) TTM versus SoC","[4]; W0-W48, cohort 1 incomplete response or intolerant to prior SoC, p<0.0001",1.64 (0.297)

# Source: patent US20260216238A1, “TETRATHIOMOLYBDIC ACID FOR USE IN TREATING COPPER METABOLISM-ASSOCIATED DISEASES OR DISORDERS (WILSON DISEASE)” (Alexion Pharmaceuticals, Inc., priority 2023, published 2026)
